Nine molecules from patent publication US20100179093A1, “Neoropeptide-2-Receptor (Y-2R) Agonists” (priority 2008, published 2010) can be followed below.

Structures are written as SMILES. Bounds are passed on as bounds.

Holding throughout (assay type): cell-based
The target in experiment [1] is T1, Y1R (Homo sapiens, UniProt P25929).
T1 sequence (P25929 1-384): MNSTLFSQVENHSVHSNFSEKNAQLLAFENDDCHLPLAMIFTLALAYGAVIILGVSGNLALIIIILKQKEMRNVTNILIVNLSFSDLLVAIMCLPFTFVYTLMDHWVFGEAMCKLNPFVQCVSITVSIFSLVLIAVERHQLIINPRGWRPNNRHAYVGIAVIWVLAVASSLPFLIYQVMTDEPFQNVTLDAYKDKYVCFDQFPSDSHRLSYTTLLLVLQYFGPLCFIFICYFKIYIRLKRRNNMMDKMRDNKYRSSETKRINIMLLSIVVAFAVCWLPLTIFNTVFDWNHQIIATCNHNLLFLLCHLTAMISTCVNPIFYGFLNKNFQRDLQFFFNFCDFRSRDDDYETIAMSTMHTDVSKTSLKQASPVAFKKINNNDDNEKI
Put plainly: CaFlux Assay (FLIPR), Y1R.

In experiment [2] the target is Y4R (Homo sapiens, UniProt P50391). The experiment in a line: CaFlux Assay (FLIPR), Y4R.
In experiment [3] the target is T2, Y5R (Homo sapiens, UniProt Q15761).
T2 sequence (Q15761 1-445): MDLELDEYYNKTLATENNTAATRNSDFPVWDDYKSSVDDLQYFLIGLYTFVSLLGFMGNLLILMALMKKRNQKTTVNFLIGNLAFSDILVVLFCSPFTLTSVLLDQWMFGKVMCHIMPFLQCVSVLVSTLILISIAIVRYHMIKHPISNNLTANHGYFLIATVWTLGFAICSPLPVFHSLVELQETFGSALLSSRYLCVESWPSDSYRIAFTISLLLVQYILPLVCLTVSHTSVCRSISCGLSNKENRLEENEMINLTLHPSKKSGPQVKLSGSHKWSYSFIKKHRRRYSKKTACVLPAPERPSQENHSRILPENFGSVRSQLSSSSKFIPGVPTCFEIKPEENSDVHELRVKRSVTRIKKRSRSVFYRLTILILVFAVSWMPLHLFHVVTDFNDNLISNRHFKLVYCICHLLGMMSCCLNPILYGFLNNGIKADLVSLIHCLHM
Put plainly: CaFlux Assay (FLIPR), Y5R.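 For Emax: percent of the maximal response of the positive control agonist.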 The conditions noted are these: for Emax: read-out: Y5R FLIPR, percentage in parentheses under the EC50.

Experiment [4] has as its target T3, hNPY2R (Homo sapiens, UniProt P49146).
T3 sequence (P49146 1-381): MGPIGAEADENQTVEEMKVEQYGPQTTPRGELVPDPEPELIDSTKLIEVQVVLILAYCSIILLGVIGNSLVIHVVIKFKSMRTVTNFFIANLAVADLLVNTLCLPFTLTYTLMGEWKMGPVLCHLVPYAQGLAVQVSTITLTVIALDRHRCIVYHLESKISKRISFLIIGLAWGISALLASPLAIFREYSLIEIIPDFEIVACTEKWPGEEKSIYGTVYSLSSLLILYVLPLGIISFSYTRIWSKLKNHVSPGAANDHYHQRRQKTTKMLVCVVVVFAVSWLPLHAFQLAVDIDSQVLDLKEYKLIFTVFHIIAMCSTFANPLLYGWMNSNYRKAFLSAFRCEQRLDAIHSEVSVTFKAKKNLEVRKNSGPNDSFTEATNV
Put plainly: cAMP Agonist Assay, HEK293/hNPY2R cells. Also noted: expressed in transfected cells; host or cells: HEK293/hNPY2R (G418 selection).
Experimental: On the first day, medium was discarded, and the monolayer cells were washed with 10 mL PBS per flask (T225). […] The flask was gently tapped and the cell suspension was pooled. Each flask was rinsed with 10 mL plating medium and centrifuged at 1000 rpm for 5 min. The suspension was pooled and counted. The suspension was resuspended in plating medium at a density of 2.0×10^5 cells/mL for HEK293/hNPY2R. 50 microliters of cells (HEK293/hNPY2R-10,000 cells/well) were transferred into the 384-well plate using Multi-drop dispenser. The plates were incubated at 37° C. overnight. […] The media and reagents were allowed to come to room temperature. Before the dilutions were prepared, the stock solution of stimulating compound in dimethyl sulphoxide (DMSO, Sigma, cat #D2650) was allowed to warm up to 32 C for 5-10 min. […] The cell medium was tapped off with a gentle inversion of the cell plate on a paper towel. 50 μL of stimulation medium was placed per well (each concentration done in four replicates). The plates were incubated at room temperature for 30 min, and the cells were checked under a microscope for toxicity. After 30 minutes of treatment, the stimulation media was discarded and 50 mL/well of Assay Lysis Buffer (provided in the Tropix kit) was added. The plates were incubated for 45 min@37° C. 20 μL of the lysate was transferred from stimulation plates into the pre-coated antibody plates (384-well) from the Tropix kit. 10 μL of AP conjugate and 20 μL of anti-cAMP antibody was added. The plates were incubated at room temperature while shaking for 1 hour. The plates were then washed 5 times with Wash Buffer, 70 μL per well for each wash. The plates were tapped to dry. 30 μL/well of CSPD/Saphire-II RTU substrate/enhancer solution was added and incubated for 45 min @ RT (shake). Signal for 1 sec/well in a Luminometer.

Experiment [5] addresses T3, hNPY2R. The experiment in a line: CaFlux Assay (FLIPR), Y2R. Also on record: expressed in transfected cells; host or cells: HEK-293 stably expressing G protein chimera Gaqi9.

Sequence of Y4R (P50391 whole entry): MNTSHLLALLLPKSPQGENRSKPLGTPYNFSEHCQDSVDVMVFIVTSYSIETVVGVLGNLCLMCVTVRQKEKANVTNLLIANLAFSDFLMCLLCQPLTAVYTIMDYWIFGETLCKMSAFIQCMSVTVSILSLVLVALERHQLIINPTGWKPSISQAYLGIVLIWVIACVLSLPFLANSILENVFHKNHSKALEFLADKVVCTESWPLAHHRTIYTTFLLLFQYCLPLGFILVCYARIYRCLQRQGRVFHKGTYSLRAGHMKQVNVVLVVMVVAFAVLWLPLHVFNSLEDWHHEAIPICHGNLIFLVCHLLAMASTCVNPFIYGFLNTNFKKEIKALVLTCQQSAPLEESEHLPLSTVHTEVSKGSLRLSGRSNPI

As usually defined, the EC50 is the concentration needed to bring the measured effect to its halfway point. Read a high EC50 as lower potency in that assay. For `CCCCCCCCCCCC(=O)NCCCC[C@H](NC(=O)[C@@H](NC(C)=O)[C@@H](C)CC)C(=O)N1CCN(c2ccc3ncn(CC(=O)N[C@@H](CCCNC(=N)N)C(=O)N[C@@H](Cc4c[nH]cn4)C(=O)N[C@@H](Cc4ccc(O)cc4)C(=O)N[C@@H](CC(C)C)C(=O)N[C@@H](CC(N)=O)C(=O)N[C@@H](Cc4c[nH]c5ccccc45)C(=O)N[C@H](C(=O)N[C@H](C(=O)N[C@@H](CCCNC(=N)N)C(=O)N[C@@H](CCC(N)=O)C(=O)N(C)[C@@H](CCCNC(=N)N)C(=O)N[C@@H](Cc4ccc(O)cc4)C(N)=O)[C@@H](C)O)C(C)C)c(=O)c3c2)CC1` [Example 7], the EC50 in experiment [1] was found to be 6430 nM; in experiment [2], 14500 nM; in experiment [3], 12800 nM; in experiment [4] it was 5.4 nM; in experiment [5], 4.7 nM.
For `CCCCCCCCCCCCCCCC(=O)N[C@@H](CCC(=O)N[C@@H](CCC(=O)NCCCC[C@H](NC(=O)[C@@H](N)[C@@H](C)CC)C(=O)N1CCN(c2ccc3ncn(CC(=O)N[C@@H](CCCNC(=N)N)C(=O)N[C@@H](Cc4c[nH]cn4)C(=O)N[C@@H](Cc4ccc(O)cc4)C(=O)N[C@@H](CC(C)C)C(=O)N[C@@H](CC(N)=O)C(=O)N[C@@H](Cc4c[nH]c5ccccc45)C(=O)N[C@H](C(=O)N[C@H](C(=O)N[C@@H](CCCNC(=N)N)C(=O)N[C@@H](CCC(N)=O)C(=O)N(C)[C@@H](CCCNC(=N)N)C(=O)N[C@@H](Cc4ccc(O)cc4)C(N)=O)[C@@H](C)O)C(C)C)c(=O)c3c2)CC1)C(=O)O)C(=O)O` [Example 25], the EC50 in experiment [1] was over 5000 nM; in experiment [2], over 5000 nM; in experiment [3] it was 443 nM; in experiment [4], 0.22 nM; in experiment [5] it was 0.08 nM. Besides, the Emax in experiment [3] was found to be 70%.
For `CCCCCCCCCCCCCCCC(=O)N[C@@H](CCC(=O)N[C@@H](CCC(=O)NCCCC[C@H](NC(=O)[C@@H](NC(=O)[C@@H]1CCC(=O)N1)[C@@H](C)CC)C(=O)N1CCN(c2ccc3ncn(CC(=O)N[C@@H](CCCNC(=N)N)C(=O)N[C@@H](Cc4c[nH]cn4)C(=O)N[C@@H](Cc4ccc(O)cc4)C(=O)N[C@@H](CC(C)C)C(=O)N[C@@H](CC(N)=O)C(=O)N[C@@H](Cc4c[nH]c5ccccc45)C(=O)N[C@H](C(=O)N[C@H](C(=O)N[C@@H](CCCNC(=N)N)C(=O)N[C@@H](CCC(N)=O)C(=O)N(C)[C@@H](CCCNC(=N)N)C(=O)N[C@@H](Cc4ccc(O)cc4)C(N)=O)[C@@H](C)O)C(C)C)c(=O)c3c2)CC1)C(=O)O)C(=O)O` [Example 28], the EC50 in experiment [1] is over 5000 nM; in experiment [2], over 5000 nM; in experiment [3], 2060 nM; in experiment [4], 0.21 nM; in experiment [5] it was 0.176 nM.
Regarding `CCCCCCCCCCCCCCCC(=O)NCCOCCOCCNC(=O)CCC(=O)NCCCC[C@H](NC(=O)[C@@H](N)[C@@H](C)CC)C(=O)N1CCN(c2ccc3ncn(CC(=O)N[C@@H](CCCNC(=N)N)C(=O)N[C@@H](Cc4c[nH]cn4)C(=O)N[C@@H](Cc4ccc(O)cc4)C(=O)N[C@@H](CC(C)C)C(=O)N[C@@H](CC(N)=O)C(=O)N[C@@H](Cc4c[nH]c5ccccc45)C(=O)N[C@H](C(=O)N[C@H](C(=O)N[C@@H](CCCNC(=N)N)C(=O)N[C@@H](CCC(N)=O)C(=O)N(C)[C@@H](CCCNC(=N)N)C(=O)N[C@@H](Cc4ccc(O)cc4)C(N)=O)[C@@H](C)O)C(C)C)c(=O)c3c2)CC1` [Example 36], the EC50 in experiment [1] is over 5000 nM; in experiment [2], over 5000 nM; in experiment [3], 481 nM; in experiment [4] it was 0.15 nM; in experiment [5], 0.138 nM. Besides, the Emax in experiment [3] was 73%.
Consider `CCCCCCCC(=O)NCCCC[C@H](NC(=O)[C@@H](NC(C)=O)[C@@H](C)CC)C(=O)N1CCN(c2ccc3ncn(CC(=O)N[C@@H](CCCNC(=N)N)C(=O)N[C@@H](Cc4c[nH]cn4)C(=O)N[C@@H](Cc4ccc(O)cc4)C(=O)N[C@@H](CC(C)C)C(=O)N[C@@H](CC(N)=O)C(=O)N[C@@H](Cc4c[nH]c5ccccc45)C(=O)N[C@H](C(=O)N[C@H](C(=O)N[C@@H](CCCNC(=N)N)C(=O)N[C@@H](CCC(N)=O)C(=O)N(C)[C@@H](CCCNC(=N)N)C(=O)N[C@@H](Cc4ccc(O)cc4)C(N)=O)[C@@H](C)O)C(C)C)c(=O)c3c2)CC1` [Example 6], for which the EC50 in experiment [1] is 5200 nM; in experiment [2] it was 2470 nM; in experiment [3], 99900 nM; in experiment [4], 1.7 nM; in experiment [5], 1.45 nM.
The like results for `CCCCCCCCCCCC(=O)NCCC(=O)NCCCC[C@H](NC(=O)[C@@H](N)[C@@H](C)CC)C(=O)N1CCN(c2ccc3ncn(CC(=O)N[C@@H](CCCNC(=N)N)C(=O)N[C@@H](Cc4c[nH]cn4)C(=O)N[C@@H](Cc4ccc(O)cc4)C(=O)N[C@@H](CC(C)C)C(=O)N[C@@H](CC(N)=O)C(=O)N[C@@H](Cc4c[nH]c5ccccc45)C(=O)N[C@H](C(=O)N[C@H](C(=O)N[C@@H](CCCNC(=N)N)C(=O)N[C@@H](CCC(N)=O)C(=O)N(C)[C@@H](CCCNC(=N)N)C(=O)N[C@@H](Cc4ccc(O)cc4)C(N)=O)[C@@H](C)O)C(C)C)c(=O)c3c2)CC1` [Example 10] were, in that order, over 5000 nM, 3510 nM, 4740 nM, 5.2 nM and 0.016 nM.
As for `CCCCCCCCCCCCCCCC(=O)NCCOCCOCCOCCC(=O)NCCCC[C@H](NC(=O)[C@@H](N)[C@@H](C)CC)C(=O)N1CCN(c2ccc3ncn(CC(=O)N[C@@H](CCCNC(=N)N)C(=O)N[C@@H](Cc4c[nH]cn4)C(=O)N[C@@H](Cc4ccc(O)cc4)C(=O)N[C@@H](CC(C)C)C(=O)N[C@@H](CC(N)=O)C(=O)N[C@@H](Cc4c[nH]c5ccccc45)C(=O)N[C@H](C(=O)N[C@H](C(=O)N[C@@H](CCCNC(=N)N)C(=O)N[C@@H](CCC(N)=O)C(=O)N(C)[C@@H](CCCNC(=N)N)C(=O)N[C@@H](Cc4ccc(O)cc4)C(N)=O)[C@@H](C)O)C(C)C)c(=O)c3c2)CC1` [Example 34], the EC50 in experiment [1] is over 5000 nM; in experiment [2], over 5000 nM; in experiment [3], 2340 nM; in experiment [4], 0.1 nM; in experiment [5], 0.003 nM. For the same molecule, the Emax in experiment [3] worked out at 80%.
On to `CCCC(=O)NCCCC[C@H](NC(=O)[C@@H](NC(C)=O)[C@@H](C)CC)C(=O)N1CCN(c2ccc3ncn(CC(=O)N[C@@H](CCCNC(=N)N)C(=O)N[C@@H](Cc4c[nH]cn4)C(=O)N[C@@H](Cc4ccc(O)cc4)C(=O)N[C@@H](CC(C)C)C(=O)N[C@@H](CC(N)=O)C(=O)N[C@@H](Cc4c[nH]c5ccccc45)C(=O)N[C@H](C(=O)N[C@H](C(=O)N[C@@H](CCCNC(=N)N)C(=O)N[C@@H](CCC(N)=O)C(=O)N(C)[C@@H](CCCNC(=N)N)C(=O)N[C@@H](Cc4ccc(O)cc4)C(N)=O)[C@@H](C)O)C(C)C)c(=O)c3c2)CC1` [Example 5], for which the EC50 in experiment [1] was over 5000 nM; in experiment [2], 31600 nM; in experiment [3] it was 24900 nM; in experiment [4], 0.39 nM; in experiment [5], 0.18 nM.
`CCCCCCCCCCCCCCCC(=O)NCCC(=O)N[C@@H](CCC(=O)O)C(=O)NCCCC[C@H](NC(=O)[C@@H](N)[C@@H](C)CC)C(=O)N1CCN(c2ccc3ncn(CC(=O)N[C@@H](CCCNC(=N)N)C(=O)N[C@@H](Cc4c[nH]cn4)C(=O)N[C@@H](Cc4ccc(O)cc4)C(=O)N[C@@H](CC(C)C)C(=O)N[C@@H](CC(N)=O)C(=O)N[C@@H](Cc4c[nH]c5ccccc45)C(=O)N[C@H](C(=O)N[C@H](C(=O)N[C@@H](CCCNC(=N)N)C(=O)N[C@@H](CCC(N)=O)C(=O)N(C)[C@@H](CCCNC(=N)N)C(=O)N[C@@H](Cc4ccc(O)cc4)C(N)=O)[C@@H](C)O)C(C)C)c(=O)c3c2)CC1` [Example 22]: the Emax in experiment [3] was found to be 70%.
